Laboratory results from PMC6510928, “Characterisation of the Ral GTPase inhibitor RBC8 in human and mouse platelets” (Cellular Signalling, 2019).

Key:
[1] = target: T1, RalB (Homo sapiens, UniProt P11234); test: GST-RalBP1 pulldown of RalB-GTP from RBC8-treated, CRP-stimulated human platelets, immunoblot densitometry; assay type: cell-based
T1 sequence (P11234 1-203): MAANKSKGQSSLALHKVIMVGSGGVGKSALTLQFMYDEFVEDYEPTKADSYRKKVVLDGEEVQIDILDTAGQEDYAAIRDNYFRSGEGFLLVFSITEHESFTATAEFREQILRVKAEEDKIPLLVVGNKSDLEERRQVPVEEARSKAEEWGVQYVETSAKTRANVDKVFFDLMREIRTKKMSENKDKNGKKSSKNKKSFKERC

[2] = target: T2, RalA (Homo sapiens, UniProt P11233); test: GST-RalBP1 pulldown of RalA-GTP from RBC8-treated, CRP-stimulated human platelets, immunoblot densitometry; assay type: cell-based
T2 sequence (P11233 1-203): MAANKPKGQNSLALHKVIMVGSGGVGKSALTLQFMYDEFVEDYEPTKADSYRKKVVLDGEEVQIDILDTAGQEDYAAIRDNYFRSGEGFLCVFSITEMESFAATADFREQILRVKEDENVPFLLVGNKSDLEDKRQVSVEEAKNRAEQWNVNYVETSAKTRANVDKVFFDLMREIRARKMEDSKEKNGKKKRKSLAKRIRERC

## COc1ccc(OC)c(C2C(C#N)=C(N)Oc3n[nH]c(-c4ccc5ccccc5c4)c32)c1 (centres unmarked) [RBC8]
[1]
  IC50: 2.3 µM
[2]
  IC50: 2.2 µM
